Values of other authors, collected in US20140023701A1, “Method and Composition for Ameliorating the Effects tor a Subject Exposed to Radiation or Other Sources of Oxidative Stress” (priority 2011, published 2014).
Read-outs that look alike come from different tables or passages of the source.

Experiments:
Human [1] = system: Human
Human [2] = system: Human; remark: listed apart in the source
[3] = no observed adverse event level, most sensitive subgroup
[4] = tolerable upper intake level, daily intake

| Molecule | Human NOAEL (Human [1]; [3]) | Human UL (19-70 yo group) (Human [2]) | Human UL (19-70 yo group) (Human [2]; [4]) | Human NOAEL (Human [1]; human) |
| --- | --- | --- | --- | --- |
| O=C(O)CCCC[C@@H]1SC[C@@H]2NC(=O)N[C@@H]21 [Biotin] | 2.5 mg |  |  |  |
| [Ca] [Calcium] | 1500 mg | 2500 mg |  |  |
| Nc1nc2ncc(CNc3ccc(C(=O)N[C@@H](CCC(=O)O)C(=O)O)cc3)nc2c(=O)[nH]1 [Folate, folic acid] | 1 mg |  |  |  |
| [Mg] [Magnesium] | 700 mg |  | 350 mg |  |
| [Mn+2] [Manganese] | 10 mg | 11 mg |  |  |
| [Mo] [Molybdenum] | 0.35 mg |  | 2 mg |  |
| O=C(O)c1cccnc1 [Niacin, inositol hexanicotinate] |  |  | 35 mg |  |
| CC(C)(CO)[C@@H](O)C(=O)NCCC(=O)O [Pantothenic acid, d-calcium pantothenate] | 1000 mg |  |  |  |
| Cc1ncc(CO)c(CO)c1O.Cl [Vitamin B6, pyridoxine hydrochloride] |  | 100 mg |  | 200 mg |
| O=C1O[C@H]([C@@H](O)CO)C(O)=C1O [Vitamin C, ascorbic acid] | >1000 mg |  |  |  |
| C=C1CC[C@H](O)C/C1=C/C=C1\CCC[C@]2(C)[C@@H]([C@H](C)CCCC(C)C)CC[C@@H]12 [Vitamin D, cholecalciferol] | 800 IU |  |  |  |
| CC1=C(C/C=C(\C)CCC[C@H](C)CCC[C@H](C)CCCC(C)C)C(=O)c2ccccc2C1=O [Vitamin K, phytonadione] |  |  |  | 0.03 mg |
| Copper | 9 mg | 10 mg |  |  |
| Vitamin A |  | 10,000 U |  | 10,000 IU |
| Vitamin E |  |  | 1490 IU | 1200 IU |
| Zinc | 30 mg | 40 mg |  |  |
| chromium polynicotinate | 1 mg |  |  |  |
| cyanocobalamin [Vitamin B12] | 3 mg |  |  |  |
